# Results from US5292498A, “Method of treating lung disease with uridine triphosphates” (The University of North Carolina At Chapel Hill, priority 1991, dated 1994).
# Tested on: normal human nasal epithelial cells
# Experiment: Intracellular calcium [Ca^2+ ]i in single normal human nasal epithelial cells (Fura-2)
# Format: cell-based
# Protocol: Freshly excised human nasal epithelium from normal or cystic fibrosis subjects was grown in primary culture in F-12, hormone-supplemented medium in accordance with known procedures. See R. Wu et al., Am. Rev. Respir. Dis. 132, 311-320 (1985). For [Ca^2+ ]i measurements, cultures were grown on non-fluorescent vitrogen substrates on glass coverslips. Cultures for electrophysiologic studies were grown to confluence on permeable collagen matrix supports (CMS), allowing addition of agonists to the basolateral or apical surface of the epithelial sheet.
# Primary human nasal epithelial cells grown to confluence on vitrogen coated coverslips were loaded with a final concentration of 3 μM Fura-2/AM at 37° C. for 30 minutes. The cells were then washed in NaCl Ringer and mounted in a chamber for measurements of fluorescence. To reduce the rate of leakage of Fura-2 from the cell into the extracellular space and avoid time-dependent compartmentalization of the probe, all measurements of [Ca^2+ ]i were performed at 25° C. At this temperature,no vesicular bright spots indicative of compartmentalization of the probe were observed.
# Measurements of [Ca^2+ ]i in single human nasal epithelial cells were obtained with a modular microspectrofluorimeter (SPEX Industries, Inc., Edison, N.J.) attached to a Zeiss Axiovert IM 35 microscope. The system was equipped with a xenon lamp, beam splitter, two monochromators and a rotating chopper mirror that permitted excitation of cell fluorescence at alternating wavelengths of 340 and 380 nm (emission ≥450 nm). The fluorescent signal from a single cell was measured with a photometer equipped with a pinhole (spot diameter of 3-5 μm) that excluded signals from adjacent cells.
# After agonist was added, the fluorescent signal was quenched by a NaCl ringer solution containing 1.5×10^-4 M digitonin and 10^-3 M MnCl2. The remaining signal at each excitation wavelength, equivalent to the background fluorescence in non loaded cells, was subtracted from data from Fura-2/AM loaded cells before the ratio (340 nm/380 nm) was taken. The 340 nm/380 nm ratio was converted to an actual [Ca^2+ ]i measurement by using the external calibration standards and the formula derived by G. Grynkiewicz et al., J. Biol. Chem. 260, 3440-3450 (1985), used with dual wavelength measurements: [Ca^2+ ]i =K [(Rx --Ro)/(Rs --Rx)], with Ro and Rs representing the ratios at 0 Ca^2+ and saturating Ca^2+, respectively. Rx represents the experimental ratio.
# To investigate whether changes in [Ca^2+ ]i might be related to regulation of ion transport, receptor characterization was performed by measuring changes in [Ca^2+ ]i in response to a number of nucleotide drugs. Concentration-effect curves for agonists active at P2x, P2y subtype or UTP sensitive receptors and other purine or pyrimidine receptor agonists were generated, measuring mean change in [Ca^2+ ]i in response to agonist concentration. Data are shown in FIG. 3, which gives log concentration-effect relationships of purinergic and pyrimidinergic compounds on [Ca^2+ ]i (mean change in [Ca^2+ ]i over basal levels).
compound,measurement,setting,value
"Nc1ncnc2c1ncn2[C@@H]1O[C@H](COP(=O)(O)OP(=O)(O)OP(=O)(O)O)[C@@H](O)[C@H]1O [ATP, adenosine triphosphate]",[Ca^2+ ]i response in Ca^2+ -free medium,Ca^2+ -free medium,initial sharp increase in [Ca^2+ ]i
same,time for [Ca^2+ ]i to return to baseline,Ca^2+ -free medium,two
same,effectiveness for raising [Ca^2+ ]i,"concentration-effect curves, FIG. 3",most effective agonists
same,[Ca^2+ ]i response,"extracellular application, Ca^2+ -containing solution",immediate increase in [Ca^2+ ]i levels
same,plateau phase on return to Ca^2+ -containing solution,return of cells to Ca^2+ -containing solution,restoration of the plateau phase
